Measurements taken from patent US8633166B2, “Methicillin-resistant Staphylococcus aureus active metabolites” (priority 2009, dated 2014).
In brackets after ≈: the same amount, converted by molar mass. Where two headings read alike, the source gives them in different places.

Key:
Assay in all cases: In vitro MIC, broth microdilution (CLSI)
Assay type in all cases: cell-based
Streptococcus pyogenes = conditions: MHB II with 2% lysed horse blood
Procedure: (§1) All test articles were dissolved in DMSO. Stock solutions were prepared at 40-fold the highest concentration in the test plate. The final concentration of DMSO in the test system was 2.5%.
(§2) The medium employed for the MIC assay was Mueller Hinton II Broth (MHB II-Becton Dickinson, #212322, Lot #9044411) for most of the organisms. MHB II was supplemented with 2% lysed horse blood (Cleveland Scientific Lot #22299-1) to accommodate the growth of Streptococcus pneumoniae, Streptococcus pyogenes and Streptococcus agalactiae. The media were prepared at 102.5% the normal weight to offset the dilution created by the addition of 5 μL drug solution to each well of the microdilution panels.
(§3) The MIC assay method followed the procedure described by the Clinical and Laboratory Standards Institute (see Clinical and Laboratory Standards Institute. Methods for Dilution Antimicrobial, Susceptibility Tests for Bacteria That Grow Aerobically; Approved Standard—Eighth Edition. CLSI document M07-A8 [ISBN 1-56238-689-1]. Clinical and Laboratory, Standards Institute, 940 West Valley Road, Suite 1400, Wayne, Pa. 19087-1898 USA, 2009) and employed automated liquid handlers to conduct serial dilutions and liquid transfers. Automated liquid handlers included the Multidrop 384 (Labsystems, Helsinki, Finland), Biomek 2000 and Multimek 96 (Beckman Coulter, Fullerton Calif.).
(§4) The wells of Columns 2-12 of standard 96-well microdilution plates (Falcon 3918) were filled with 150 μL of DMSO on the Multidrop 384. The drugs (300 μL) were dispensed into Column 1 of the appropriate row in these plates. These would become the mother plates from which the test plates (daughter plates) were prepared. The Biomek 2000 completed serial transfers through Column 11 in the mother plates. The wells of Column 12 contained no drug and were the organism growth control wells in the daughter plates. The daughter plates were loaded with 185 μL of the appropriate test media (described above) using the Multidrop 384. The daughter plates were prepared on the Multimek 96 instrument which transferred 5 μL of drug solution from each well of a mother plate to each corresponding well of each daughter plate in a single step. Therefore, the test agents were maintained in solution in 100% DMSO up until the point of being added to the final test medium.
(§5) Standardized inoculum of each organism was prepared per CLSI methods (See Clinical and Laboratory Standards Institute. Performance Standards for Antimicrobial Susceptibility Testing; Nineteenth Informational Supplement. CLSI document M100-S19 [ISBN 1-56238-690-5]. Clinical and Laboratory Standards Institute, 940 West Valley Road, Suite 1400, Wayne, Pa. 19087-1898 USA, 2009.). Suspensions were prepared in MHB to equal the turbidity of a 0.5 McFarland standard. The suspensions were diluted 1:9 in broth appropriate to the organism. The inoculum for each organism was dispensed into sterile reservoirs divided by width (Beckman Coulter), and the Biomek 2000 was used to inoculate the plates. Daughter plates were placed on the Biomek 2000 work surface reversed so that inoculation took place from low to high drug concentration. The Biomek 2000 delivered 10 μL of standardized inoculum into each well. This yielded a final cell concentration in the daughter plates of approximately 5×10^5 colony-forming-units/mL. Thus, the wells of the daughter plates ultimately contained 185 μL of broth, 5 μL of drug solution, and 10 μL of bacterial inoculum. The final concentration of DMSO in the assay plate was 2.5%.
(§6) Plates were stacked 3 high, covered with a lid on the top plate, placed in plastic bags, and incubated at 35° C. for approximately 18 hours for most of the isolates. The Streptococcus plates were read after 20 hours of incubation. The microplates were viewed from the bottom using a plate viewer. […] The MIC was read and recorded as the lowest concentration of drug that inhibited visible growth of the organism.

Enterococcus faecium = conditions: read-out: MIC
Procedure: as §1, §2, §3, §4, §5, §6

[1] = system: Staphylococcus epidermidis; conditions: Staphylococcus epidermidis, read-out: MIC
Procedure: as §1, §2, §3, §4, §5, §6

Streptococcus agalactiae = conditions: Streptococcus agalactiae, MHB II with 2% lysed horse blood, read-out: MIC
Procedure: as §1, §2, §3, §4, §5, §6

Streptococcus pneumoniae = conditions: Streptococcus pneumoniae, MHB II with 2% lysed horse blood, read-out: MIC (converted)
Procedure: as §1, §2, §3, §4, §5, §6

Enterococcus faecalis = conditions: read-out: MIC (converted)
Procedure: as §1, §2, §3, §4, §5, §6

Staphylococcus aureus = conditions: Staphylococcus aureus, read-out: MIC (converted)
Procedure: as §1, §2, §3, §4, §5, §6

CC(=O)NC[C@H]1CN(c2ccc(N3CCOCC3)c(F)c2)C(=O)O1 [Linezolid, reference compound]
MIC (Streptococcus pyogenes; MMX 2572, UCLA): 1 µg/mL (≈ 2.96 µM) | MIC (Streptococcus pyogenes; MMX 3928, Mt. Sinai): 1 µg/mL (≈ 2.96 µM) | MIC (Streptococcus pyogenes; Streptococcus pyogenes, MMX 718, CHP, read-out: MIC): 1 µg/mL (≈ 2.96 µM) | MIC (Enterococcus faecium; Enterococcus faecium, MMX 0799, VSE, CHP): 2 µg/mL (≈ 5.93 µM) | MIC (Enterococcus faecium; Enterococcus faecium, MMX 0845, VSE, UCLA): 2 µg/mL (≈ 5.93 µM) | MIC (Enterococcus faecium; Enterococcus faecium, MMX 1259, VSE, Mt. Sinai): 4 µg/mL (≈ 11.9 µM) | MIC (Enterococcus faecium; MMX 1238, VRE, Mt. Sinai): 2 µg/mL (≈ 5.93 µM) | MIC (Enterococcus faecium; MMX 4024, VRE, CHP): 4 µg/mL (≈ 11.9 µM) | MIC (Enterococcus faecium; MMX 4048, VRE, UCLA): 4 µg/mL (≈ 11.9 µM) | MIC ([1]; MMX 835, MSSE, UCLA): 1 µg/mL (≈ 2.96 µM) | MIC ([1]; MMX 3703, MSSE, CHP): 1 µg/mL (≈ 2.96 µM) | MIC ([1]; MMX 3763, MSSE, Mt. Sinai): 2 µg/mL (≈ 5.93 µM) | MIC ([1]; MRSE, MMX 762, MRSE, CHP): 1 µg/mL (≈ 2.96 µM) | MIC ([1]; MRSE, MMX 826, MRSE, UCLA): 1 µg/mL (≈ 2.96 µM) | MIC ([1]; MRSE, MMX 3752, MRSE, Mt. Sinai): 1 µg/mL (≈ 2.96 µM) | MIC (Streptococcus agalactiae; MMX 3743, Mt. Sinai): 1 µg/mL (≈ 2.96 µM) | MIC (Streptococcus agalactiae; MMX 4093, UCLA): 1 µg/mL (≈ 2.96 µM) | MIC (Streptococcus agalactiae; MMX 4106, CHP): 2 µg/mL (≈ 5.93 µM) | MIC (Streptococcus pneumoniae; ATCC49619, MMX 1195, CLSI QC, ATCC 49619): 1 µg/mL (≈ 2.96 µM) | MIC (Streptococcus pneumoniae; MMX 866, PSSP, CHP): 1 µg/mL (≈ 2.96 µM) | MIC (Streptococcus pneumoniae; MMX 3130, PSSP, UCLA): 1 µg/mL (≈ 2.96 µM) | MIC (Streptococcus pneumoniae; MMX 3937, PSSP, Mt. Sinai): 1 µg/mL (≈ 2.96 µM) | MIC (Streptococcus pneumoniae; PRSP, MMX 748, PRSP, CHP): 0.5 µg/mL (≈ 1.48 µM) | MIC (Streptococcus pneumoniae; PRSP, MMX 3160, PRSP, UCLA): 1 µg/mL (≈ 2.96 µM) | MIC (Streptococcus pneumoniae; PRSP, MMX 3953, PRSP, Mt. Sinai): 0.5 µg/mL (≈ 1.48 µM) | MIC (Enterococcus faecalis; Enterococcus faecalis, ATCC29212, MMX 101, CLSI QC, ATCC 29212): 2 µg/mL (≈ 5.93 µM) | MIC (Enterococcus faecalis; Enterococcus faecalis, MMX 742, VSE, CHP): 2 µg/mL (≈ 5.93 µM) | MIC (Enterococcus faecalis; Enterococcus faecalis, MMX 3199, VSE, UCLA): 2 µg/mL (≈ 5.93 µM) | MIC (Enterococcus faecalis; Enterococcus faecalis, MMX 3896, VSE, Mt. Sinai): 1 µg/mL (≈ 2.96 µM) | MIC (Enterococcus faecalis; MMX 3821, VRE, Mt. Sinai): 2 µg/mL (≈ 5.93 µM) | MIC (Enterococcus faecalis; MMX 4131, VRE, CHP): 2 µg/mL (≈ 5.93 µM) | MIC (Enterococcus faecalis; MMX 4160, VRE, UCLA): 2 µg/mL (≈ 5.93 µM) | MIC (Staphylococcus aureus; ATCC29213, MMX 100, CLSI QC, ATCC 29213): 4 µg/mL (≈ 11.9 µM) | MIC (Staphylococcus aureus; MRSA, MMX 758, MRSA, CHP): 4 µg/mL (≈ 11.9 µM) | MIC (Staphylococcus aureus; MRSA, MMX 2055, MRSA, UCLA): 4 µg/mL (≈ 11.9 µM) | MIC (Staphylococcus aureus; MRSA, MMX 3894, MRSA, Mt. Sinai): 4 µg/mL (≈ 11.9 µM) | MIC (Staphylococcus aureus; MSSA, MMX 753, MSSA, CHP): 4 µg/mL (≈ 11.9 µM) | MIC (Staphylococcus aureus; MSSA, MMX 2063, MSSA, UCLA): 2 µg/mL (≈ 5.93 µM) | MIC (Staphylococcus aureus; MSSA, MMX 3856, MSSA, Mt. Sinai): 4 µg/mL (≈ 11.9 µM)
